# Experimental data reported in patent publication US8436043B2 (Takeda Pharmaceutical Company Limited, priority 2008, dated 2013).
# Biological target: T1, human glucagon receptor (Homo sapiens, UniProt P47871)
# T1 construct: made in house; host or cells: FreeStyle CHO cells, transient transfection with pMSRαneo/hGCGR; membrane fraction (35,000 rpm pellet)
# Experiment: Glucagon binding inhibitory activity ([125I]-glucagon binding to glucagon receptor membrane protein)
# Conditions: test compound 10 μM; 0.4% DMSO = 0%, non-labeled glucagon 1 μM = 100%; read-out: inhibitory rate (%) at 10 μM
# Procedure, shortened: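 Receptor source was a membrane fraction of transiently transfected CHO cells bearing human receptor; 90 min room-temperature binding, filtration harvest, scintillation counting.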
# T1 sequence (P47871 26-477): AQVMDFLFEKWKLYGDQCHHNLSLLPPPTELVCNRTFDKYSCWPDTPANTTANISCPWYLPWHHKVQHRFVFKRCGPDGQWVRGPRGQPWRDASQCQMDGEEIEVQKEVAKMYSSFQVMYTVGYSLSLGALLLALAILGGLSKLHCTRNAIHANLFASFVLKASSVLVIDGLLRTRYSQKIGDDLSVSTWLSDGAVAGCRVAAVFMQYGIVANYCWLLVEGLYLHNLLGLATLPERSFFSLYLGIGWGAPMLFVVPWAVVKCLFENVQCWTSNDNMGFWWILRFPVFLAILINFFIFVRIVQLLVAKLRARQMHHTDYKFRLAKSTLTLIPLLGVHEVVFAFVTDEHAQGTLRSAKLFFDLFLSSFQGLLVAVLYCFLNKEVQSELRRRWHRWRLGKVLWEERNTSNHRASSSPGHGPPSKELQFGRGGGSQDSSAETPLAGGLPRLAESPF
row,Compound,inhibition at 10 µM
1,"Cc1c(C(Nc2ccc(C(=O)NCCC(=O)O)cc2)C2CCCCC2)oc2cccc(F)c12 (stereo not drawn) [Example A161, 3-{[(4-{[cyclohexyl(4-fluoro-3-methyl-1-benzofuran-2-yl)methyl]amino}phenyl)carbonyl]amino}propanoic acid]",84%
2,"Cc1c(C(Nc2ccc(C(=O)NCCC(=O)O)cc2)C2CCCCC2)oc2c(F)cc(F)cc12 (stereo not drawn) [Example A163, 3-{[(4-{[cyclohexyl(5,7-difluoro-3-methyl-1-benzofuran-2-yl)methyl]amino}phenyl)carbonyl]amino}propanoic acid]",87%
3,"Cc1c(C(C)Nc2ccc(C(=O)NCCC(=O)O)cc2)oc2ccc(OCc3ccccc3)cc12 (stereo not drawn) [Example A165, 3-({[4-({1-[5-(benzyloxy)-3-methyl-1-benzofuran-2-yl]ethyl}amino)phenyl]carbonyl}amino)propanoic acid]",85%
4,"Cc1c(C(Nc2ccc(C(=O)NCCC(=O)O)cc2)C(C)C)oc2ccc(OCc3ccccc3)cc12 (stereo not drawn) [Example A171, 3-({[4-({1-[5-(benzyloxy)-3-methyl-1-benzofuran-2-yl]-2-methylpropyl}amino)phenyl]carbonyl}amino)propanoic acid]",86%
5,"Cc1c(C(Nc2ccc(C(=O)N(C)CCC(=O)O)nc2)C(C)C)oc2ccc(OCc3ccccc3)cc12 (stereo not drawn) [Example A172, 3-[{[5-({1-[5-(benzyloxy)-3-methyl-1-benzofuran-2-yl]-2-methylpropyl}amino)pyridin-2-yl]carbonyl}(methyl)amino]propanoic acid]",82%
6,"COCCOc1ccc2oc(C(Nc3ccc(C(=O)N(C)CCC(=O)O)cc3)C(C)C)c(C)c2c1 (stereo not drawn) [Example A173, 3-[{[4-({1-[5-(2-methoxyethoxy)-3-methyl-1-benzofuran-2-yl]-2-methylpropyl}amino)phenyl]carbonyl}(methyl)amino]propanoic acid]",74%
7,"Cc1c(C(Nc2ccc(C(=O)N(C)CCC(=O)O)cc2)C(C)C)oc2cccc(F)c12 (stereo not drawn) [Example A175, 3-{[(4-{[1-(4-fluoro-3-methyl-1-benzofuran-2-yl)-2-methylpropyl]amino}phenyl)carbonyl](methyl)amino}propanoic acid]",68%
8,"Cc1c(C(Nc2ccc(C(=O)N(C)CCC(=O)O)cc2)C(C)C)oc2ccc(OC3CCOCC3)cc12 (stereo not drawn) [Example A180, 3-(methyl{[4-({2-methyl-1-[3-methyl-5-(tetrahydro-2H-pyran-4-yloxy)-1-benzofuran-2-yl]propyl}amino)phenyl]carbonyl}amino)propanoic acid]",83%
9,"COc1ccc(-c2ccc3oc(C(Nc4ccc(C(=O)N(C)CCC(=O)O)cc4)C(C)C)c(C)c3c2)cn1 (stereo not drawn) [Example A182, 3-[{[4-({1-[5-(6-methoxypyridin-3-yl)-3-methyl-1-benzofuran-2-yl]-2-methylpropyl}amino)phenyl]carbonyl}(methyl)amino]propanoic acid]",95%
10,"COc1ncccc1-c1ccc2oc(C(Nc3ccc(C(=O)N(C)CCC(=O)O)cc3)C(C)C)c(C)c2c1 (stereo not drawn) [Example A183, 3-[{[4-({1-[5-(2-methoxypyridin-3-yl)-3-methyl-1-benzofuran-2-yl]-2-methylpropyl}amino)phenyl]carbonyl}(methyl)amino]propanoic acid]",88%
11,"Cc1c(C(Nc2ccc(C(=O)N(C)CCC(=O)O)cc2)C(C)C)oc2ccc(C3CC3)cc12 (stereo not drawn) [Example A184, 3-{[(4-{[1-(5-cyclopropyl-3-methyl-1-benzofuran-2-yl)-2-methylpropyl]amino}phenyl)carbonyl](methyl)amino}propanoic acid]",74%
12,"Cc1c(C(Nc2ccc(C(=O)N(C)CCC(=O)O)cn2)C2CCCCC2)oc2c(F)cc(F)cc12 (stereo not drawn) [Example A185, 3-{[(6-{[cyclohexyl(5,7-difluoro-3-methyl-1-benzofuran-2-yl)methyl]amino}pyridin-3-yl)carbonyl](methyl)amino}propanoic acid]",71%

# Further lines, results first:
row,inhibition at 10 µM,Compound
1,74%,"Cc1c(C(CC(C)C)Nc2ccc(C(=O)N(C)CCC(=O)O)cc2)oc2ccc(OCc3ccccc3)cc12 (stereo not drawn) [Example A159, 3-[{[4-({1-[5-(benzyloxy)-3-methyl-1-benzofuran-2-yl]-3-methylbutyl}amino)phenyl]carbonyl}(methyl)amino]propanoic acid]"
2,92%,"Cc1c(C(Nc2ccc(C(=O)N(C)CCC(=O)O)cc2)C2CCCCC2)oc2ccc(OC3CCSCC3)cc12 (stereo not drawn) [Example A160, 3-[{[4-({cyclohexyl[3-methyl-5-(tetrahydro-2H-thiopyran-4-yloxy)-1-benzofuran-2-yl]methyl}amino)phenyl]carbonyl}(methyl)amino]propanoic acid]"
3,79%,Cc1c(C(Nc2ccc(C(=O)N(C)CCC(=O)O)cc2)C2CCCCC2)oc2cccc(F)c12 (stereo not drawn) [Example A162]
4,85%,"Cc1c(C(Nc2ccc(C(=O)N(C)CCC(=O)O)cc2)C2CCCCC2)oc2c(F)cc(F)cc12 (stereo not drawn) [Example A164, 3-{[(4-{[cyclohexyl(5,7-difluoro-3-methyl-1-benzofuran-2-yl)methyl]amino}phenyl)carbonyl](methyl)amino}propanoic acid]"
5,75%,"Cc1c(C(C)Nc2ccc(C(=O)N(C)CCC(=O)O)cc2)oc2ccc(OCc3ccccc3)cc12 (stereo not drawn) [Example A166, 3-[{[4-({1-[5-(benzyloxy)-3-methyl-1-benzofuran-2-yl]ethyl}amino)phenyl]carbonyl}(methyl)amino]propanoic acid]"
6,86%,"Cc1c(C(Nc2ccc(C(=O)NCCC(=O)O)cc2)C2CCCCC2)oc2ccc(OCc3ccnc(F)c3)cc12 (stereo not drawn) [Example A167, 3-[({4-[(cyclohexyl{5-[(2-fluoropyridin-4-yl)methoxy]-3-methyl-1-benzofuran-2-yl}methyl)amino]phenyl}carbonyl)amino]propanoic acid]"
7,90%,"Cc1c(C(Nc2ccc(C(=O)N(C)CCC(=O)O)cc2)C2CCCCC2)oc2ccc(OCc3ccnc(F)c3)cc12 (stereo not drawn) [Example A168, 3-[({4-[(cyclohexyl{5-[(2-fluoropyridin-4-yl)methoxy]-3-methyl-1-benzofuran-2-yl}methyl)amino]phenyl}carbonyl)(methyl)amino]propanoic acid]"
8,86%,"Cc1c(C(Nc2ccc(C(=O)NCCC(=O)O)cc2)C2CCCCC2)oc2ccc(OCc3ccc(Cl)nc3)cc12 (stereo not drawn) [Example A169, 3-{[(4-{[{5-[(6-chloropyridin-3-yl)methoxy]-3-methyl-1-benzofuran-2-yl}(cyclohexyl)methyl]amino}phenyl)carbonyl]amino}propanoic acid]"
9,89%,"Cc1c(C(Nc2ccc(C(=O)N(C)CCC(=O)O)cc2)C2CCCCC2)oc2ccc(OCc3ccc(Cl)nc3)cc12 (stereo not drawn) [Example A170, 3-{[(4-{[{5-[(6-chloropyridin-3-yl)methoxy]-3-methyl-1-benzofuran-2-yl}(cyclohexyl)methyl]amino}phenyl)carbonyl](methyl)amino}-propanoic acid]"
10,98%,"COc1ccc(-c2ccc3oc(C(Nc4ccc(C(=O)N(C)CCC(=O)O)cc4)C4CCCCC4)c(C)c3c2)cn1 (stereo not drawn) [Example A174, 3-[{[4-({cyclohexyl[5-(6-methoxypyridin-3-yl)-3-methyl-1-benzofuran-2-yl]methyl}amino)phenyl]carbonyl}(methyl)amino]propanoic acid]"
11,96%,"Cc1c(C(Nc2ccc(C(=O)N(C)CCC(=O)O)cc2)C2CCCCC2)oc2ccc(-c3ccccc3)cc12 (stereo not drawn) [Example A176, 3-{[(4-{[cyclohexyl(3-methyl-5-phenyl-1-benzofuran-2-yl)methyl]amino}phenyl)carbonyl](methyl)amino}propanoic acid]"
12,90%,"COc1ncccc1-c1ccc2oc(C(Nc3ccc(C(=O)N(C)CCC(=O)O)cc3)C3CCCCC3)c(C)c2c1 (stereo not drawn) [Example A177, 3-[{[4-({cyclohexyl[5-(2-methoxypyridin-3-yl)-3-methyl-1-benzofuran-2-yl]methyl}amino)phenyl]carbonyl}(methyl)amino]propanoic acid]"
13,86%,"Cc1noc(C)c1-c1ccc2oc(C(Nc3ccc(C(=O)N(C)CCC(=O)O)cc3)C3CCCCC3)c(C)c2c1 (stereo not drawn) [Example A178, 3-[{[4-({cyclohexyl[5-(3,5-dimethylisoxazol-4-yl)-3-methyl-1-benzofuran-2-yl]methyl}amino)phenyl]carbonyl}(methyl)amino]propanoic acid]"
14,84%,"CCC(Nc1ccc(C(=O)N(C)CCC(=O)O)cc1)c1oc2ccc(OCc3ccccc3)cc2c1C (stereo not drawn) [Example A179, 3-[{[4-({1-[5-(benzyloxy)-3-methyl-1-benzofuran-2-yl]propyl}amino)phenyl]carbonyl}(methyl)amino]propanoic acid]"
15,88%,"Cc1c(C(Nc2ccc(C(=O)N(C)CCC(=O)O)cc2)C2CCCCC2)oc2ccc(-c3cnn(C)c3)cc12 (stereo not drawn) [Example A181, 3-[{[4-({cyclohexyl[3-methyl-5-(1-methyl-1H-pyrazol-4-yl)-1-benzofuran-2-yl]methyl}amino)phenyl]carbonyl}(methyl)amino]propanoic acid]"
16,85%,"Cc1c(C(Nc2ccc(C(=O)N(C)CCC(=O)O)cc2)C2CCCCC2)oc2ccc(N3CCOCC3)cc12 (stereo not drawn) [Example A186, 3-[{[4-({cyclohexyl[3-methyl-5-(morpholin-4-yl)-1-benzofuran-2-yl]methyl}amino)phenyl]carbonyl}(methyl)amino]propanoic acid]"
17,90%,"Cc1c(C(Nc2ccc(C(=O)N(C)CCC(=O)O)cc2)C2CCCCC2)oc2ccc(N3CCSCC3)cc12 (stereo not drawn) [Example A187, 3-[{[4-({cyclohexyl[3-methyl-5-(thiomorpholin-4-yl)-1-benzofuran-2-yl]methyl}amino)phenyl]carbonyl}(methyl)amino]propanoic acid]"
18,77%,"COCCN(C)c1ccc2oc(C(Nc3ccc(C(=O)N(C)CCC(=O)O)cc3)C3CCCCC3)c(C)c2c1 (stereo not drawn) [Example A188, 3-[({4-[(cyclohexyl{5-[(2-methoxyethyl)(methyl)amino]-3-methyl-1-benzofuran-2-yl}methyl)amino]phenyl}carbonyl)(methyl)amino]propanoic acid]"
